No end group written: not given here.
What was measured:
TREK-1 channel = target: T1, TREK-1 channel (Homo sapiens, UniProt O95069); assay: Whole-cell patch clamp of TREK-1 channel activity in transfected COS-7 cells; type: cell-based
T1 construct: expressed in transfected cells; host or cells: COS-7 cells (ATCC CRL-1651), DEAE-dextran transfection
T1 sequence (O95069 1-426): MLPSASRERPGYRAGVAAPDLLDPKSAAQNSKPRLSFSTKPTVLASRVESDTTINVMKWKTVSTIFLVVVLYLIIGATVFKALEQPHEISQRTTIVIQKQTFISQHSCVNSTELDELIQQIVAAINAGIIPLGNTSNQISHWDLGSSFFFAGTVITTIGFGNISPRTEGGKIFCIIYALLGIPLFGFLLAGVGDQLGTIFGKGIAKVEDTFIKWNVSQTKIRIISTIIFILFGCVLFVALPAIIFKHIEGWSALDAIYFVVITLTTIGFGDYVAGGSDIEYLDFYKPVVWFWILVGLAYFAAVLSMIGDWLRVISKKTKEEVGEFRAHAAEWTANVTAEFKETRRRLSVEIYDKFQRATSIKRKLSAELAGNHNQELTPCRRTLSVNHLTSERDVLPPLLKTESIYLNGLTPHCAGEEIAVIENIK
Description: All the experiments for measuring the effect of the propeptide were conducted on COS-7 cells (cell line derived from kidney fibroblasts of African green monkey Cercopithecus aethiops). These cells are sown at a density of 20 000 cells/dish with diameter of 35 mm, 24 hours before being transfected by the DEAE-dextran method with 1 μg of pIRES-EGFP-TREK-1 plasmid. Measurements of current were taken 48 to 72 hours after transfection.
Culture of the COS-7 cells. The COS-7 cells (ATCC reference: CRL-1651) are cultivated in DMEM medium (Gibco)/10% fetal calf serum (FCS, ICN), at 37° C. in the presence of 5% CO2.
Transfection using DEAE dextran. On day 1, the COS-7 cells are sown at 20 000 cells per 35-mm diameter dish containing 2 ml of culture medium. On day 2, the medium is removed and the cells are covered with 200 μl of PBS (Gibco) containing 1 μg of pIRES-EGFP-TREK-1 plasmid and 100 μg of DEAE-dextran (Sigma) then placed at 37° C./5% CO2. After incubation for 30 minutes, 2 ml of medium DMEM/10% NuSerum/80 μM chloroquin is added. After 3 hours, the medium is replaced with 2 ml of DMEM/10% FCS and the cells are incubated for 48 to 72 hours before being measured by electrophysiological methods.
Electrophysiological measurements: all the measurements are taken at room temperature, i.e. at 21-22° C. The cells that were transfected by the plasmid are detected from the fluorescence emitted by the EGFP after excitation at 480 nm.
The whole-cell patch clamp technique was used for measuring the activity of the TREK-1 channels. The equipment used is the RK 400 patch-clamp amplifier (Axon Instruments, U.S.A.). The patch pipettes with resistance of 1.3 to 8 MΩ are prepared from capillaries of borosilicate glass and are filled with a solution of 155 mM KCl, 3 mM MgCl2, 5 mM EGTA, 10 mM HEPES/KOH pH 7.2.
The cell culture medium is replaced with a solution of 150 mM NaCl, 5 mM KCl, 3 mM MgCl2, 1 mM CaCl2, 10 HEPES/NaOH pH 7.4 containing 10 mM tetraethyl ammonium chloride, 3 mM of 4-aminopyridin. The cells are perfused continuously with this solution. The rest potential of the membrane of the measured cell is fixed at −80 mV.
The variations in voltage are obtained either with a continuous ramp (from −100 to +50 mV) or by potential jumps of 10 mV (from −100 to +40 mV, 1.5 second per jump).
The data obtained were analyzed with the Pclamp software. The currents described in the appended FIG. 2B were obtained at 0 mV, the results expressed are the mean values±standard deviation. The IC50 value was obtained by plotting the experimental data with a sigmoidal function.
The activity of the channel is then measured by the patch-clamp technique in whole-cell configuration as described above.

C57BL6/J mice = assay: Tail flick test of sensitivity to pain; type: in vivo, mouse; conditions: bath at 48° C.; 100 μl at 10^−6 M; 30 minutes after injection
Description: This test consists of immersing the tail of a mouse in a bath at 48° C. and measuring the time it takes to withdraw it from the bath. Before any injections, a habituation test was carried out on the mouse. It consists of immersing the tail of each animal twice in the bath so as to have homogeneous groups before any treatment (obtaining a reaction time less than 12 seconds). Then the mice were injected with 100 μl of physiological saline solution (“PHYS SALINE”) or 100 μl of peptide of sequence ID No. 2 at a concentration of 10^−6 M (“PE 10^−6M”).
The mice used were C57BL6/J mice. Each group was constituted of 10 mice.
The measurements were taken 30 minutes after injection.
The difference was evaluated using the Student t test.

[1] = system: hippocampus progenitor cells; assay: Neurogenesis (BrdU-positive cells) after 4 days of treatment; type: in vivo, mouse; conditions: PE 10^−5 M
Excerpt: In contrast to many antidepressants now commonly used, the efficacy of action of the peptide of the invention is very rapid. […] 93: 3908-3913 (1996) (28) and with a considerable decrease in neurogenesis in the dentate gyrus (Gould, E., Tanapat, P., McEwen, B. S., Flugge, G., Fuchs, E. “Proliferation of granule cell precursors in the dentate gyrus of adult monkeys is diminished by stress” Proc Natl Acad Sci USA, 95: 3168-3171 (1998)) (29).
The experimental protocol is that described in the material and methods (Supplement) of the work of Santarelli et al., “Requirement of hippocampal neurogenesis for the behavioral effects of antidepressants” Science, 301: 805-809 (2003) (24) apart from the duration of treatment, which is four days.
The increase was evaluated using the one-factor ANOVA test followed by the post-hoc test.

For “APLPRWSGPIGVSWGLR [propeptide, APLPRWSGPIGVSWGLR]”, which “current density at 0 mV” value (TREK-1 channel; 10 μM arachidonic acid plus 100 μM of propeptide (130 pA/pF without propeptide)) is on record?
Its value is 56 pA/pF.

What about the inhibition at 100 µM (TREK-1 channel; COS-7, read-out: inhibition of channel activity measured at 0 mV) of the same sequence?
The inhibition at 100 µM was 25%.

What about the IC50 (TREK-1 channel; activated by 10 μM arachidonic acid, measured at 0 mV, read-out: half-effect concentration (IC50) of inhibition of TREK-1 channel activity) of the same sequence?
Its IC50 is 70.7 nM.

What about the “current density at 0 mV” value (TREK-1 channel; baseline conditions, 100 μM of propeptide (control 31 pA/pF)) of the same sequence?
Its value is 23 pA/pF.

What about the “activation of TREK-1 by arachidonic acid” value (TREK-1 channel; electrophysiology, FIG. 2) of the same sequence?
The value was “blocked”.

What about the “time to withdraw tail from bath” value (C57BL6/J mice) of the same sequence?
The value was 8.3 ± 0.7 s.

What about the “neurogenesis relative to physiological saline” value [1] of the same sequence?
The value was “significant increase in neurogenesis”.
